The values that follow come from patent publication US12344606B2, “Next-generation modulators of stimulator of interferon genes (STING)” (RYVU THERAPEUTICS S.A., priority 2019, dated 2025).

One assay has as its target human STING (Homo sapiens, UniProt Q86WV6). The assay is described as follows: Fluorescence Thermal Shift assay (hSTING FTS binding assay). Particulars: STING 0.1 mg/ml, 20 min preincubation, SyproOrange. Summed up:
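STING protein (final 0.1 mg/ml) preincubated 20 min with compound in 50 mM Hepes, 150 mM NaCl, pH 7.5, then SyproOrange dye added. Thermal unfolding monitored by fluorescence from 25 to 99° C. at a continuous ramp of 0.033° C./s.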

The subject of assay [1] is NF-κB pathway in THP-1 dual cells. The assay is described as follows: THP-1 Dual reporter assay, NF-κB pathway (SEAP). It is filed as cell-based. To be noted: Homo sapiens, THP1-Dual; 18 h stimulation, absorbance; read-out: THP1 Dual EC50 (μM) NFkB. The procedure, abridged: (§1)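 THP-1 dual reporter cells stimulated 18 h with STING agonist; culture medium then sampled. IRF activity read as ISG54/ISRE-driven luciferase luminescence; NF-κB activity read as SEAP absorbance at 630 nm (or 655 nm) after 2 h (or 1 h) at 37° C with detection medium.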
A general note: A reporter such as luciferase makes a cellular process visible.

For the next assay, the system named is CT26 cells. The assay is described as follows: CT26 re-challenge study of mice with complete responses. It is filed as in vivo, Balb/C mice. On the procedure: Mice with complete responses were subjected to a re-challenge study. CT26 cells were injected into the flank opposite to an original site of inoculation. Naïve mice were included into the re-challenge study as a control of the tumor growth kinetics.

In assay [2] the test system is interferon regulatory factor (IRF) pathway in THP-1 dual cells. The assay can be described thus: THP-1 Dual reporter assay, IRF pathway (luciferase). It is filed as cell-based. To be noted: Homo sapiens, THP1-Dual; 18 h stimulation, luminescence. Summed up:
as §1

Assay [3] concerns CT26 murine colon carcinoma allografts. The assay can be described thus: In vivo anti-tumor efficacy in CT26 allografts. Set-up: species or system female Balb/C mice. To be noted: for efficacy of dose: once every fifth day x3, 10% Captisol in PBS. On the procedure: The efficacy of Example 1 was evaluated in established CT26 murine colon carcinoma allografts in female Balb/C mice. Example 1 was formulated in 10% Captisol in PBS and administered intravenously, once every fifth day on three occasions. The solution was prepared fresh prior to each administration. […] In both treatment groups tumor growth delay was observed when compared to the control group. By the end of the study, on day 42, there were 3 and 6 complete responses recorded for mice treated at 2 and 3 mg/kg E5Dx3, respectively.

The term EC50 denotes the concentration that produces a half-maximal response.

Structures are written as SMILES.

human STING, sequence (Q86WV6 whole entry H232R): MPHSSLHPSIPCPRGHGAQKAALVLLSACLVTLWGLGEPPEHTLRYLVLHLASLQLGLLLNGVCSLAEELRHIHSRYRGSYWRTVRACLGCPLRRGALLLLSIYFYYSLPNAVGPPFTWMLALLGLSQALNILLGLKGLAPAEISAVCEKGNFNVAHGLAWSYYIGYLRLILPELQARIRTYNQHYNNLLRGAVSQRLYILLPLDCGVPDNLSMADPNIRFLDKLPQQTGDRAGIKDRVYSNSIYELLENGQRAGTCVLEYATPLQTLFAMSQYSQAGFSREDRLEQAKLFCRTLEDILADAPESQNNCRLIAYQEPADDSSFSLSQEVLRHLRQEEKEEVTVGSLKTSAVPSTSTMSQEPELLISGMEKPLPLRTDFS

As for `COc1cc(CN(Cc2cn(C)c3ccccc3c2=O)[C@H]2CCCN(c3cccnc3)C2)ccn1` [Example 1, 3-({[(2-methoxypyridin-4-yl)methyl][(3S)-1-(pyridin-3-yl)piperidin-3-yl]amino}methyl)-1-methyl-1,4-dihydroquinolin-4-one], the “hSTING FTS binding assay (ΔT C.°)” value at human STING was “++ (ΔTm>10° C.)”. The EC50 in assay [1] and in assay [2] was no more than 1 µM throughout. In addition, the “mice that developed tumors on re-challenge” value in the assay with CT26 cells (six mice with complete responses dosed previously at 3 mg/kg, substantial delay in tumor growth) is listed as “two of them developed a tumor”; in the assay with CT26 cells (three mice with complete responses dosed previously at 2 mg/kg), “none of them developed tumors”. Moreover, the “TGI (tumor growth inhibition)” value is listed as 52% in assay [3] (2 mg/kg E5Dx3, 11th day) and 80% in assay [3] (3 mg/kg E5Dx3, 11th day). Besides, the “complete responses (number of mice)” value in assay [3] (2 mg/kg E5Dx3, day 42) is 3; in assay [3] (3 mg/kg E5Dx3, day 42), 6. Moreover, the “efficacy of dose” value is “moderately efficacious dose” in assay [3] (2 mg/kg i.v.) and “full efficacious dose” in assay [3] (3 mg/kg i.v.).

Consider `Cc1ccc(N2CCC[C@H](N(Cc3ccnc(C)c3)Cc3cn(C)c4cc(N5CCNCC5=O)ccc4c3=O)C2)cn1` [Example 49, 1-methyl-3-({[(3S)-1-(6-methylpyridin-3-yl)piperidin-3-yl][(2-methylpyridin-4-yl)methyl]amino}methyl)-7-(2-oxopiperazin-1-yl)-1,4-dihydroquinolin-4-one], for which the “hSTING FTS binding assay (ΔT C.°)” value on human STING is listed as “+ (ΔTm<10° C.)”. In addition, the EC50 in assay [1] and in assay [2] was no less than 10 µM in each case.

Turning to `Cc1ccc(N2CCC[C@H](N(Cc3ccnc(C)c3)Cc3cn(C4COC4)c4ccccc4c3=O)C2)cn1` [Example 50, 3-({[(3S)-1-(6-methylpyridin-3-yl)piperidin-3-yl][(2-methylpyridin-4-yl)methyl]amino}methyl)-1-(oxetan-3-yl)-1,4-dihydroquinolin-4-one], the “hSTING FTS binding assay (ΔT C.°)” value at human STING is “++ (ΔTm>10° C.)”. The EC50 in assay [1] and in assay [2] was no more than 1 µM each time.

For the compound `Cc1ccc(N2CCC[C@H](N(Cc3ccnc(C)c3)Cc3cn(CC(=O)O)c4ccccc4c3=O)C2)cn1` [Example 51, 2-[3-({[(3S)-1-(6-Methylpyridin-3-yl)piperidin-3-yl][(2-methylpyridin-4-yl)methyl]amino}methyl)-4-oxo-1,4-dihydroquinolin-1-yl]acetic acid], the “hSTING FTS binding assay (ΔT C.°)” value on human STING is recorded as “++ (ΔTm>10° C.)”. The EC50 in assay [1] and in assay [2] was no less than 10 µM in each case.

As for `Cc1ccc(N2CCC[C@H](N(Cc3ccnc(C)c3)Cc3cn(C4CC4)c4cc(N5CCNC6(CC6)C5)c(F)cc4c3=O)C2)cn1` [Example 52, 1-cyclopropyl-7-{4,7-diazaspiro[2.5]octan-7-yl}-6-fluoro-3-({[(3S)-1-(6-methylpyridin-3-yl)piperidin-3-yl][(2-methylpyridin-4-yl)methyl]amino}methyl)-1,4-dihydroquinolin-4-one], the “hSTING FTS binding assay (ΔT C.°)” value at human STING is on record as “++ (ΔTm>10° C.)”. Further, the EC50 in assay [1] and in assay [2] was no more than 1 µM throughout.

In the case of `Cc1cc(CN(Cc2cn(C)c3ccccc3c2=O)[C@H]2CCCN(c3nnc(C)o3)C2)ccn1` [Example 53, 1-methyl-3-({[(3S)-1-(5-methyl-1,3,4-oxadiazol-2-yl)piperidin-3-yl][(2-methylpyridin-4-yl)methyl]amino}methyl)-1,4-dihydroquinolin-4-one], the “hSTING FTS binding assay (ΔT C.°)” value on human STING was “+ (ΔTm<10° C.)”. In addition, the EC50 in assay [1] was 1 to 10 µM; in assay [2], no less than 10 µM.

For `Cn1cc(CN(Cc2ccns2)[C@H]2CCCN(c3cccnc3)C2)c(=O)c2ccccc21` [Example 55, 1-methyl-3-({[(3S)-1-(pyridin-3-yl)piperidin-3-yl][(1,2-thiazol-5-yl)methyl]amino}methyl)-1,4-dihydroquinolin-4-one], the “hSTING FTS binding assay (ΔT C.°)” value at human STING was “+ (ΔTm<10° C.)”. The EC50 in assay [1] and in assay [2] was no less than 10 µM in each case.

With `Cc1ccc(N2CCC[C@H](N(Cc3ccnc(C)c3)Cc3cn(C4CC4)c4cc(Cl)ncc4c3=O)C2)cn1` [Example 56, 7-chloro-1-cyclopropyl-3-({[(3S)-1-(6-methylpyridin-3-yl)piperidin-3-yl][(2-methylpyridin-4-yl)methyl]amino}methyl)-1,4-dihydro-1,6-naphthyridin-4-one], the “hSTING FTS binding assay (ΔT C.°)” value at human STING is “+ (ΔTm<10° C.)”. In addition, the EC50 in assay [1] is 1 to 10 µM; in assay [2] it was no more than 1 µM.

Turning to `Cc1ccc(N2CCC[C@H](N(Cc3ccnc(C)c3)Cc3c[nH]c4ccccc4c3=O)C2)cn1` [Example 58, 3-({[(3S)-1-(6-methylpyridin-3-yl)piperidin-3-yl][(2-methylpyridin-4-yl)methyl]amino}methyl)-1,4-dihydroquinolin-4-one], the “hSTING FTS binding assay (ΔT C.°)” value on human STING was “++ (ΔTm>10° C.)”. Moreover, the EC50 in assay [1] and in assay [2] was no more than 1 µM in each case.

With `Cc1ccc(N2CCC[C@H](N(Cc3ccnc(C)c3)Cc3cn(C4CC4)c4cc(O)c(F)cc4c3=O)C2)cn1` [Example 59, 1-cyclopropyl-6-fluoro-7-hydroxy-3-({[(3S)-1-(6-methylpyridin-3-yl)piperidin-3-yl][(2-methylpyridin-4-yl)methyl]amino}methyl)-1,4-dihydroquinolin-4-one], the “hSTING FTS binding assay (ΔT C.°)” value at human STING is “++ (ΔTm>10° C.)”. Also, the EC50 in assay [1] was 1 to 10 µM; in assay [2], no more than 1 µM.
